Source: patent US11926645B2, “Compounds and methods for treatment of viral infections” (priority 2020, dated 2024)
Like-named read-outs stand apart in the source and are kept apart here.

Tests used:
Assay type in all cases: cell-based
[1] = tested on: RSV-Fluc (Respiratory Syncytial virus strain A2 containing the firefly luciferase reporter); test: microbe, parasite or virus in culture; settings: human respiratory syncytial virus, 72 h, NHBE cells, three days
[2] = tested on: RSV strain A2; test: RSV antiviral assay (Hep2), EC50-Hep2/B1-384; settings: human respiratory syncytial virus, HEp-2, 96 h; Hep2 cells, 4 days, Cell-Titer Glo
[3] = in vitro; settings: human
Experimental: The cytotoxicity of compounds was determined in A549-hACE2 cells in the following manner. Compounds (200 nL) were spotted onto 384-well Grenier plates prior to seeding 5000 A549-hACE2 cells/well in a volume of 40 μL culture medium. The plates were incubated at 37° C. for 48 hours with 5% CO2. On day 2, 40 μL of CellTiter-Glo (Promega) was added and mixed 5 times.

[4] = tested on: SARS-CoV-2-Nluc viruses; test: microbe, parasite or virus in culture
[5] = Severe acute respiratory syndrome coronavirus 2, 48 h; read-out: SARS-CoV2 EC50
[6] = Severe acute respiratory syndrome coronavirus 2, 48 h, read-out: SARS-CoV2 EC50

Row | Structure (SMILES) | EC50 [1] [µM] | EC50 [2] [µM] | CC50 at 48 h [3] [µM] | EC50 [4, 5] [µM] | EC50 [4, 6] [µM]
1 | CC(=O)OC[C@H]1O[C@@](C#N)(c2ccc3c(N)ncnn23)[C@H](OC(C)=O)[C@@H]1OC(C)=O [Compound 2, (2R,3R,4R,5R)-5-(acetoxymethyl)-2-(4-aminopyrrolo[2,1-f][1,2,4]triazin-7-yl)-2-cyanotetrahydrofuran-3,4-diyl diacetate] | 0.287 | 0.537 | > 50 | 1.9 | 
2 | CCC(=O)OC[C@H]1O[C@@](C#N)(c2ccc3c(N)ncnn23)[C@H](OC(=O)CC)[C@@H]1OC(=O)CC [Compound 3, (2R,3R,4R,5R)-2-(4-aminopyrrolo[2,1-f][1,2,4]triazin-7-yl)-2-cyano-5-((propionyloxy)methyl)tetrahydrofuran-3,4-diyl dipropionate] | 0.831 | 0.425 | > 100 | 3.1 | 
3 | N#C[C@@]1(c2ccc3c(N)ncnn23)O[C@H](CO)[C@H]2OC(c3ccccc3)O[C@H]21 (stereo partly drawn) [Compound 4, (3aR,4R,6R,6aR)-4-(4-aminopyrrolo[2,1-f][1,2,4]triazin-7-yl)-6-(hydroxymethyl)-2-phenyltetrahydrofuro[3,4-d][1,3]dioxole-4-carbonitrile] |  | 26.3 | > 100 | > 10 | 
4 | CC(C)C(=O)OC[C@H]1O[C@@](C#N)(c2ccc3c(N)ncnn23)[C@@H]2OC(c3ccccc3)O[C@@H]21 (stereo partly drawn) [Compound 5, ((3aR,4R,6R,6aR)-6-(4-aminopyrrolo[2,1-f][1,2,4]triazin-7-yl)-6-cyano-2-phenyltetrahydrofuro[3,4-d][1,3]dioxol-4-yl)methyl isobutyrate] |  | 13.1 | > 100 | > 10 | 
5 | CC(C)[C@H](N)C(=O)OC[C@H]1O[C@@](C#N)(c2ccc3c(N)ncnn23)[C@@H]2OC(c3ccccc3)O[C@@H]21 (stereo partly drawn) [Compound 6, ((3aR,4R,6R,6aR)-6-(4-aminopyrrolo[2,1-f][1,2,4]triazin-7-yl)-6-cyano-2-phenyltetrahydrofuro[3,4-d][1,3]dioxol-4-yl)methyl L-valinate] |  | 23.6 | > 71.2 | > 10 | 
6 | CC(C)(N)C(=O)OC[C@H]1O[C@@](C#N)(c2ccc3c(N)ncnn23)[C@H](O)[C@@H]1O [Compound 7, ((2R,3S,4R,5R)-5-(4-aminopyrrolo[2,1-f][1,2,4]triazin-7-yl)-5-cyano-3,4-dihydroxytetrahydrofuran-2-yl)methyl 2-amino-2-methylpropanoate] |  | 0.859 | > 50 | 3.1 | 
7 | CC(C)[C@H](N)C(=O)OC[C@H]1O[C@@](C#N)(c2ccc3c(N)ncnn23)[C@H](O)[C@@H]1O [Compound 8, ((2R,3S,4R,5R)-5-(4-aminopyrrolo[2,1-f][1,2,4]triazin-7-yl)-5-cyano-3,4-dihydroxytetrahydrofuran-2-yl)methyl L-valinate] | > 5 | 0.904 | > 100 | 2.7 | 
8 | CC(C)[C@@H](N)C(=O)OC[C@H]1O[C@@](C#N)(c2ccc3c(N)ncnn23)[C@H](O)[C@@H]1O [Compound 9, ((2R,3S,4R,5R)-5-(4-aminopyrrolo[2,1-f][1,2,4]triazin-7-yl)-5-cyano-3,4-dihydroxytetrahydrofuran-2-yl)methyl D-valinate] |  | 0.798 | > 50 | 2.4 | 
9 | N#C[C@@]1(c2ccc3c(N)ncnn23)O[C@H](COC(=O)[C@@H](N)Cc2ccccc2)[C@@H](O)[C@H]1O [Compound 10, ((2R,3S,4R,5R)-5-(4-aminopyrrolo[2,1-f][1,2,4]triazin-7-yl)-5-cyano-3,4-dihydroxytetrahydrofuran-2-yl)methyl L-phenylalaninate] |  | 1.2 | > 100 | 2.2 | 
10 | CC(C)C(=O)O[C@H]1[C@@H](OC(=O)C(C)C)[C@](C#N)(c2ccc3c(N)ncnn23)O[C@@H]1COC(=O)C(C)(C)N [Compound 11, (2R,3R,4R,5R)-5-(((2-amino-2-methylpropanoyl)oxy)methyl)-2-(4-aminopyrrolo[2,1-f][1,2,4]triazin-7-yl)-2-cyanotetrahydrofuran-3,4-diyl bis(2-methylpropanoate)] | 0.301 | 0.387 | > 100 | 2.6 | 
11 | CC(C)C(=O)O[C@H]1[C@@H](OC(=O)C(C)C)[C@](C#N)(c2ccc3c(N)ncnn23)O[C@@H]1COC(=O)[C@@H](N)C(C)C [Compound 12, (2R,3R,4R,5R)-5-(((L-valyl)oxy)methyl)-2-(4-aminopyrrolo[2,1-f][1,2,4]triazin-7-yl)-2-cyanotetrahydrofuran-3,4-diylbis(2-methylpropanoate)] | 0.169 | 0.42 | > 50 | 3.3 | 
12 | N#C[C@@]1(c2ccc3c(N)ncnn23)O[C@H](CO)[C@H]2OC(=O)O[C@H]21 [Compound 13, (3aR,4R,6R,6aR)-4-(4-aminopyrrolo[2,1-f][1,2,4]triazin-7-yl)-6-(hydroxymethyl)-2-oxotetrahydrofuro[3,4-d][1,3]dioxole-4-carbonitrile] |  | 0.506 | > 50 | 1.3 | 
13 | N#C[C@@]1(c2ccc3c(N)ncnn23)O[C@H](COC(=O)C[C@@H](N)Cc2ccccc2)[C@@H](O)[C@H]1O [Compound 14, ((2R,3S,4R,5R)-5-(4-aminopyrrolo[2,1-f][1,2,4]triazin-7-yl)-5-cyano-3,4-dihydroxytetrahydrofuran-2-yl)methyl (S)-3-amino-4-phenylbutanoate] |  | 0.825 | > 50 | 2.7 | 
14 | CC(C)CC(=O)OC[C@H]1O[C@@](C#N)(c2ccc3c(N)ncnn23)[C@H](O)[C@@H]1O [Compound 16, ((2R,3S,4R,5R)-5-(4-aminopyrrolo[2,1-f][1,2,4]triazin-7-yl)-5-cyano-3,4-dihydroxytetrahydrofuran-2-yl)methyl 3-methylbutanoate] | 0.575 | 0.216 | > 10 |  | 1.22
15 | N#C[C@@]1(c2ccc3c(N)ncnn23)O[C@H](COC(=O)C2CCCCC2)[C@@H](O)[C@H]1O [Compound 17, ((2R,3S,4R,5R)-5-(4-aminopyrrolo[2,1-f][1,2,4]triazin-7-yl)-5-cyano-3,4-dihydroxytetrahydrofuran-2-yl)methyl cyclohexanecarboxylate] | 1.18 | 0.213 | > 10 | 0.79 | 
16 | CCCC(CCC)C(=O)OC[C@H]1O[C@@](C#N)(c2ccc3c(N)ncnn23)[C@H](O)[C@@H]1O [Compound 18, ((2R,3S,4R,5R)-5-(4-aminopyrrolo[2,1-f][1,2,4]triazin-7-yl)-5-cyano-3,4-dihydroxytetrahydrofuran-2-yl)methyl 2-propylpentanoate] | 0.224 | 0.172 | > 10 |  | 0.94
17 | CCC(CC)C(=O)OC[C@H]1O[C@@](C#N)(c2ccc3c(N)ncnn23)[C@H](O)[C@@H]1O [Compound 19, ((2R,3S,4R,5R)-5-(4-aminopyrrolo[2,1-f][1,2,4]triazin-7-yl)-5-cyano-3,4-dihydroxytetrahydrofuran-2-yl)methyl 2-ethylbutanoate] | 0.261 | 0.238 | > 10 | 1.45 | 
